Patent US20220389007A1, “INHIBITORS OF HUMAN IMMUNODEFICIENCY VIRUS REPLICATION” (VIIV HEALTHCARE UK (No. 5) LIMITED, priority 2019, published 2022)
pEC50: −log10 of the molar value.

Key:
[1] = Compound cytotoxicity, XTT-based colorimetric assay; assay type: cell-based; conditions: human; uninfected MT2 cells, day 4, XTT assay
Summary of the method: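 Run under the antiviral-assay protocol but without virus. Viability was read on day 4 and CC50 values were derived from the readout.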

recombinant NL4-3 virus = assay: HIV cell culture assay (antiviral activity, luciferase readout); assay type: cell-based; conditions: Human immunodeficiency virus 1, NL43, MT2, MT-2 cells infected for 4-5 days with recombinant NL4-3 virus carrying Renilla luciferase
Summary of the method: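 MT-2 cells infected for 4-5 days with NL4-3 reference virus carrying Renilla luciferase in place of part of nef, in presence of serial compound dilutions. Luciferase read with live-cell substrate; EC50 from median effect equation fit.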

| Structure (SMILES) | CC50 at 4 day [1] | pEC50 (recombinant NL4-3 virus) |
| --- | --- | --- |
| Cn1nc(NS(C)(=O)=O)c2c(Cl)ccc(-n3c([C@H](Cc4cc(F)cc(F)c4)NC(=O)Cn4nc(C(F)F)c5c4C(F)(F)[C@@H]4C[C@H]54)nc4nc(-c5cc(C(F)(F)F)ncn5)ccc4c3=O)c21 (atropisomer, axis not shown; (P)) [Example 15, N-((S)-1-((3P)-3-(4-chloro-1-methyl-3-(methylsulfonamido)-1H-indazol-7-yl)-4-oxo-7-(6-(trifluoromethyl)pyrimidin-4-yl)-3,4-dihydropyrido[2,3-d]pyrimidin-2-yl)-2-(3,5-difluorophenyl)ethyl)-2-((3bS,4aR)-3-(difluoromethyl)-5,5-difluoro-3b,4,4a,5-tetrahydro-1H-cyclopropa[3,4]cyclopenta[1,2-c]pyrazol-1-yl)acetamide] | > 100 nM | 10.60 |
| COc1cncc(-c2ccc3c(=O)n(-c4ccc(Cl)c5c(NS(C)(=O)=O)nn(C)c45)c([C@H](Cc4cc(F)cc(F)c4)NC(=O)Cn4nc(C(F)F)c5c4C(F)(F)[C@@H]4C[C@H]54)nc3n2)c1 (atropisomer, axis not shown; (P)) [Example 51, N-((S)-1-((3P)-3-(4-chloro-1-methyl-3-(methylsulfonamido)-1H-indazol-7-yl)-7-(5-methoxypyridin-3-yl)-4-oxo-3,4-dihydropyrido[2,3-d]pyrimidin-2-yl)-2-(3,5-difluorophenyl)ethyl)-2-((3bS,4aR)-3-(difluoromethyl)-5,5-difluoro-3b,4,4a,5-tetrahydro-1H-cyclopropa[3,4]cyclopenta[1,2-c]pyrazol-1-yl)acetamide] | > 100 nM | 10.07 |
| Cn1nc(NS(C)(=O)=O)c2c(Cl)ccc(-n3c([C@H](Cc4cc(F)cc(F)c4)NC(=O)Cn4nc(C(F)F)c5c4C(F)(F)[C@@H]4C[C@H]54)nc4nc(-c5ncncc5C(F)(F)F)ccc4c3=O)c21 (atropisomer, axis not shown; (P)) [Example 17, N-((S)-1-((3P)-3-(4-chloro-1-methyl-3-(methylsulfonamido)-1H-indazol-7-yl)-4-oxo-7-(5-(trifluoromethyl)pyrimidin-4-yl)-3,4-dihydropyrido[2,3-d]pyrimidin-2-yl)-2-(3,5-difluorophenyl)ethyl)-2-((3bS,4aR)-3-(difluoromethyl)-5,5-difluoro-3b,4,4a,5-tetrahydro-1H-cyclopropa[3,4]cyclopenta[1,2-c]pyrazol-1-yl)acetamide] | > 100 nM | 10.42 |
| Cn1nc(NS(C)(=O)=O)c2c(Cl)ccc(-n3c([C@H](Cc4cc(F)cc(F)c4)NC(=O)Cn4nc(C(F)F)c5c4C(F)(F)[C@@H]4C[C@H]54)nc4nc(-c5cncc(Cl)c5)ccc4c3=O)c21 (atropisomer, axis not shown; (P)) [Example 29, N-((S)-1-((3P)-3-(4-chloro-1-methyl-3-(methylsulfonamido)-1H-indazol-7-yl)-7-(5-chloropyridin-3-yl)-4-oxo-3,4-dihydropyrido[2,3-d]pyrimidin-2-yl)-2-(3,5-difluorophenyl)ethyl)-2-((3bS,4aR)-3-(difluoromethyl)-5,5-difluoro-3b,4,4a,5-tetrahydro-1H-cyclopropa[3,4]cyclopenta[1,2-c]pyrazol-1-yl)acetamide] | > 100 nM | 10.24 |
| CC(C)Cn1nccc1-c1ccc2c(=O)n(-c3ccc(Cl)c4c(NS(C)(=O)=O)nn(C)c34)c([C@H](Cc3cc(F)cc(F)c3)NC(=O)Cn3nc(C(F)F)c4c3C(F)(F)[C@@H]3C[C@H]43)nc2n1 (atropisomer, axis not shown; (P)) [Example 69, N-((S)-1-((3P)-3-(4-chloro-1-methyl-3-(methylsulfonamido)-1H-indazol-7-yl)-7-(1-isobutyl-1H-pyrazol-5-yl)-4-oxo-3,4-dihydropyrido[2,3-d]pyrimidin-2-yl)-2-(3,5-difluorophenyl)ethyl)-2-((3bS,4aR)-3-(difluoromethyl)-5,5-difluoro-3b,4,4a,5-tetrahydro-1H-cyclopropa[3,4]cyclopenta[1,2-c]pyrazol-1-yl)acetamide] | > 100 nM | 10.00 |
| Cn1nc(NS(C)(=O)=O)c2c(Cl)ccc(-n3c([C@H](Cc4cc(F)cc(F)c4)NC(=O)Cn4nc(C(F)F)c5c4C(F)(F)[C@@H]4C[C@H]54)nc4nc(-c5cccc(F)n5)ccc4c3=O)c21 (atropisomer, axis not shown; (P)) [Example 30, N-((S)-1-((3P)-3-(4-chloro-1-methyl-3-(methylsulfonamido)-1H-indazol-7-yl)-7-(6-fluoropyridin-2-yl)-4-oxo-3,4-dihydropyrido[2,3-d]pyrimidin-2-yl)-2-(3,5-difluorophenyl)ethyl)-2-((3bS,4aR)-3-(difluoromethyl)-5,5-difluoro-3b,4,4a,5-tetrahydro-1H-cyclopropa[3,4]cyclopenta[1,2-c]pyrazol-1-yl)acetamide] | > 100 nM | 10.47 |
| Cn1nc(NS(C)(=O)=O)c2c(Cl)ccc(-n3c([C@H](Cc4cc(F)cc(F)c4)NC(=O)Cn4nc(C(F)F)c5c4C(F)(F)[C@@H]4C[C@H]54)nc4nc(-c5ccn(CCCC(F)(F)F)n5)ccc4c3=O)c21 (atropisomer, axis not shown; (P)) [Example 85, N-((S)-1-((3P)-3-(4-chloro-1-methyl-3-(methylsulfonamido)-1H-indazol-7-yl)-4-oxo-7-(1-(4,4,4-trifluorobutyl)-1H-pyrazol-3-yl)-3,4-dihydropyrido[2,3-d]pyrimidin-2-yl)-2-(3,5-difluorophenyl)ethyl)-2-((3bS,4aR)-3-(difluoromethyl)-5,5-difluoro-3b,4,4a,5-tetrahydro-1H-cyclopropa[3,4]cyclopenta[1,2-c]pyrazol-1-yl)acetamide] | > 100 nM | 10.02 |
| Cn1nc(NS(C)(=O)=O)c2c(Cl)ccc(-n3c([C@H](Cc4cc(F)cc(F)c4)NC(=O)Cn4nc(C(F)F)c5c4C(F)(F)[C@@H]4C[C@H]54)nc4nc(-c5cnn(CC(F)(F)F)c5)ccc4c3=O)c21 (atropisomer, axis not shown; (P)) [Example 75, N-((S)-1-((3P)-3-(4-chloro-1-methyl-3-(methylsulfonamido)-1H-indazol-7-yl)-4-oxo-7-(1-(2,2,2-trifluoroethyl)-1H-pyrazol-4-yl)-3,4-dihydropyrido[2,3-d]pyrimidin-2-yl)-2-(3,5-difluorophenyl)ethyl)-2-((3bS,4aR)-3-(difluoromethyl)-5,5-difluoro-3b,4,4a,5-tetrahydro-1H-cyclopropa[3,4]cyclopenta[1,2-c]pyrazol-1-yl)acetamide] | > 100 nM | 10.05 |
| Cn1nc(NS(C)(=O)=O)c2c(Cl)ccc(-n3c([C@H](Cc4cc(F)cc(F)c4)NC(=O)Cn4nc(C(F)F)c5c4C(F)(F)[C@@H]4C[C@H]54)nc4nc(-c5ccnn5C5CC5)ccc4c3=O)c21 (atropisomer, axis not shown; (P)) [Example 77, N-((S)-1-((3P)-3-(4-chloro-1-methyl-3-(methylsulfonamido)-1H-indazol-7-yl)-7-(1-cyclopropyl-1H-pyrazol-5-yl)-4-oxo-3,4-dihydropyrido[2,3-d]pyrimidin-2-yl)-2-(3,5-difluorophenyl)ethyl)-2-((3bS,4aR)-3-(difluoromethyl)-5,5-difluoro-3b,4,4a,5-tetrahydro-1H-cyclopropa[3,4]cyclopenta[1,2-c]pyrazol-1-yl)acetamide] | > 100 nM | 10.14 |
| Cc1cc(-c2ccc3c(=O)n(-c4ccc(Cl)c5c(NS(C)(=O)=O)nn(C)c45)c([C@H](Cc4cc(F)cc(F)c4)NC(=O)Cn4nc(C(F)F)c5c4C(F)(F)[C@@H]4C[C@H]54)nc3n2)nc(C(F)(F)F)n1 (atropisomer, axis not shown; (P)) [Example 18, N-((S)-1-((3P)-3-(4-chloro-1-methyl-3-(methylsulfonamido)-1H-indazol-7-yl)-7-(6-methyl-2-(trifluoromethyl)pyrimidin-4-yl)-4-oxo-3,4-dihydropyrido[2,3-d]pyrimidin-2-yl)-2-(3,5-difluorophenyl)ethyl)-2-((3bS,4aR)-3-(difluoromethyl)-5,5-difluoro-3 b,4,4a,5-tetrahydro-1H-cyclopropa[3,4]cyclopenta[1,2-c]pyrazol-1-yl)acetamide] | > 100 nM | 10.17 |
| Cn1nc(NS(C)(=O)=O)c2c(Cl)ccc(-n3c([C@H](Cc4cc(F)cc(F)c4)NC(=O)Cn4nc(C(F)F)c5c4C(F)(F)[C@@H]4C[C@H]54)nc4nc(-n5ccnc5)ccc4c3=O)c21 (atropisomer, axis not shown; (P)) [Example 64, N-((S)-1-((3P)-3-(4-chloro-1-methyl-3-(methylsulfonamido)-1H-indazol-7-yl)-7-(1H-imidazol-1-yl)-4-oxo-3,4-dihydropyrido[2,3-d]pyrimidin-2-yl)-2-(3,5-difluorophenyl)ethyl)-2-((3bS,4aR)-3-(difluoromethyl)-5,5-difluoro-3b,4,4a,5-tetrahydro-1H-cyclopropa[3,4]cyclopenta[1,2-c]pyrazol-1-yl)acetamide] | > 100 nM | 9.28 |
| Cn1nc(NS(C)(=O)=O)c2c(Cl)ccc(-n3c([C@H](Cc4cc(F)cc(F)c4)NC(=O)Cn4nc(C(F)F)c5c4C(F)(F)[C@@H]4C[C@H]54)nc4nc(-c5cc(C(F)F)ccn5)ccc4c3=O)c21 (atropisomer, axis not shown; (P)) [Example 39, N-((S)-1-((3P)-3-(4-chloro-1-methyl-3-(methylsulfonamido)-1H-indazol-7-yl)-7-(4-(difluoromethyl)pyridin-2-yl)-4-oxo-3,4-dihydropyrido[2,3-d]pyrimidin-2-yl)-2-(3,5-difluorophenyl)ethyl)-2-((3bS,4aR)-3-(difluoromethyl)-5,5-difluoro-3b,4,4a,5-tetrahydro-1H-cyclopropa[3,4]cyclopenta[1,2-c]pyrazol-1-yl)acetamide] | > 100 nM | 10.34 |
